Source: patent publication US9340590B2 (priority 2011, dated 2016)
Positions of bridges follow the written chain, without caps; N, C: chain ends. Non-standard residues stand in square brackets, D forms with d. Residues, ends and D or L forms follow the SMILES beside them. Arg(Me2s) = CN=C(NC)NCCC[C@H](N)C(=O)O; Abu = CC[C@H](N)C(=O)O

Assays:
hNav1.5 = hNav1.5 (Homo sapiens, UniProt Q14524); assay: cell-based
hNav1.7 = hNav1.7 (Homo sapiens, UniProt Q15858); assay: cell-based; details: Nav1.7 Use IC50
Sequence of hNav1.7 (Q15858 whole entry, looked up): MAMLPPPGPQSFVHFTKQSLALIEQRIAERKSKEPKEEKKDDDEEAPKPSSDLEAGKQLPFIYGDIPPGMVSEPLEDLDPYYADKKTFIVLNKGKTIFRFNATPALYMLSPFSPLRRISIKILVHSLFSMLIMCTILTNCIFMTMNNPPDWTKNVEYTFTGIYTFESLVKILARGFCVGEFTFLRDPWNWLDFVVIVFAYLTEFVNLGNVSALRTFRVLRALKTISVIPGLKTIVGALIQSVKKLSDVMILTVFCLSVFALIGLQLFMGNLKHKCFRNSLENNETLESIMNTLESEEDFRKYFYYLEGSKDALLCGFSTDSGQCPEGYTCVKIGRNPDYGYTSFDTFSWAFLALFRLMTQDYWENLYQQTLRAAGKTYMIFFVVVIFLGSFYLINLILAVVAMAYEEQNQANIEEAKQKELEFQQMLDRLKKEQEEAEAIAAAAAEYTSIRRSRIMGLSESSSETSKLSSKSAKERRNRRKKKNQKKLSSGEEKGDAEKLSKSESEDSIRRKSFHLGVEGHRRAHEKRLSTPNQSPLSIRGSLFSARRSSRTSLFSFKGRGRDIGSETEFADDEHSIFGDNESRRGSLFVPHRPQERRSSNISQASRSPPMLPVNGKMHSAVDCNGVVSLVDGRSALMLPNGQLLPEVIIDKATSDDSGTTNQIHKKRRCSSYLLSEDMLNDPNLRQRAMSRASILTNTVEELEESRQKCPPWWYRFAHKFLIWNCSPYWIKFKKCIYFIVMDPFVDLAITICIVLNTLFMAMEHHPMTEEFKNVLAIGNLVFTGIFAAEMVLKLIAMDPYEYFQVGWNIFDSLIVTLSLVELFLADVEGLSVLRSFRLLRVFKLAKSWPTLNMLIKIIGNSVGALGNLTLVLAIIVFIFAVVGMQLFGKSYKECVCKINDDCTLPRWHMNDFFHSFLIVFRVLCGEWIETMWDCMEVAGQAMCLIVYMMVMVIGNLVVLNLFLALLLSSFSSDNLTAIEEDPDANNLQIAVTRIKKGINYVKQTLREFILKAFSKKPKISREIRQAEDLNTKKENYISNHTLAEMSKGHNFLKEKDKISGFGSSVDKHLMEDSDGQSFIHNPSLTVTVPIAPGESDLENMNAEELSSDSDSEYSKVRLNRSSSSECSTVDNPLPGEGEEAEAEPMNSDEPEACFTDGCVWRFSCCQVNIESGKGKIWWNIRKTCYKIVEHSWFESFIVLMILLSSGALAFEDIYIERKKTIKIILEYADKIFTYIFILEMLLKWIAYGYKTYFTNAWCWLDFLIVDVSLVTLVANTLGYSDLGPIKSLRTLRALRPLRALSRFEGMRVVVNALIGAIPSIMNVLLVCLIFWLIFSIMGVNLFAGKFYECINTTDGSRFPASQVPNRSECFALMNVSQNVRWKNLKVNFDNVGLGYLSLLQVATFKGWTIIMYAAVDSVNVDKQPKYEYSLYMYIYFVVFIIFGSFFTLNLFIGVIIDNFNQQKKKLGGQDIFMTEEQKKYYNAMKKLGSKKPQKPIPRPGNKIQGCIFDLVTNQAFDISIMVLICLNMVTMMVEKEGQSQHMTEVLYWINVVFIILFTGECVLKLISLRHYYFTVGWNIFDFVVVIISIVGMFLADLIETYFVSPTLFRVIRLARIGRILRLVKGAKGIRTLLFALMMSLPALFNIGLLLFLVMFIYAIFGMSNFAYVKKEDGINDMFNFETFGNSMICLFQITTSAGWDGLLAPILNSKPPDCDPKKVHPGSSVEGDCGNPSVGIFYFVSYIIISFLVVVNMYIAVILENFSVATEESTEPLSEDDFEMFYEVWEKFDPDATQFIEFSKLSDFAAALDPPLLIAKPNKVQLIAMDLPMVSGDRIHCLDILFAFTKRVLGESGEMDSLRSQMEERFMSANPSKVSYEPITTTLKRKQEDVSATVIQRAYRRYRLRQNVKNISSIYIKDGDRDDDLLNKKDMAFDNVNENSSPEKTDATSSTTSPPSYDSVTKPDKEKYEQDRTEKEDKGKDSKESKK

Sequence of hNav1.5 (Q14524 whole entry, looked up): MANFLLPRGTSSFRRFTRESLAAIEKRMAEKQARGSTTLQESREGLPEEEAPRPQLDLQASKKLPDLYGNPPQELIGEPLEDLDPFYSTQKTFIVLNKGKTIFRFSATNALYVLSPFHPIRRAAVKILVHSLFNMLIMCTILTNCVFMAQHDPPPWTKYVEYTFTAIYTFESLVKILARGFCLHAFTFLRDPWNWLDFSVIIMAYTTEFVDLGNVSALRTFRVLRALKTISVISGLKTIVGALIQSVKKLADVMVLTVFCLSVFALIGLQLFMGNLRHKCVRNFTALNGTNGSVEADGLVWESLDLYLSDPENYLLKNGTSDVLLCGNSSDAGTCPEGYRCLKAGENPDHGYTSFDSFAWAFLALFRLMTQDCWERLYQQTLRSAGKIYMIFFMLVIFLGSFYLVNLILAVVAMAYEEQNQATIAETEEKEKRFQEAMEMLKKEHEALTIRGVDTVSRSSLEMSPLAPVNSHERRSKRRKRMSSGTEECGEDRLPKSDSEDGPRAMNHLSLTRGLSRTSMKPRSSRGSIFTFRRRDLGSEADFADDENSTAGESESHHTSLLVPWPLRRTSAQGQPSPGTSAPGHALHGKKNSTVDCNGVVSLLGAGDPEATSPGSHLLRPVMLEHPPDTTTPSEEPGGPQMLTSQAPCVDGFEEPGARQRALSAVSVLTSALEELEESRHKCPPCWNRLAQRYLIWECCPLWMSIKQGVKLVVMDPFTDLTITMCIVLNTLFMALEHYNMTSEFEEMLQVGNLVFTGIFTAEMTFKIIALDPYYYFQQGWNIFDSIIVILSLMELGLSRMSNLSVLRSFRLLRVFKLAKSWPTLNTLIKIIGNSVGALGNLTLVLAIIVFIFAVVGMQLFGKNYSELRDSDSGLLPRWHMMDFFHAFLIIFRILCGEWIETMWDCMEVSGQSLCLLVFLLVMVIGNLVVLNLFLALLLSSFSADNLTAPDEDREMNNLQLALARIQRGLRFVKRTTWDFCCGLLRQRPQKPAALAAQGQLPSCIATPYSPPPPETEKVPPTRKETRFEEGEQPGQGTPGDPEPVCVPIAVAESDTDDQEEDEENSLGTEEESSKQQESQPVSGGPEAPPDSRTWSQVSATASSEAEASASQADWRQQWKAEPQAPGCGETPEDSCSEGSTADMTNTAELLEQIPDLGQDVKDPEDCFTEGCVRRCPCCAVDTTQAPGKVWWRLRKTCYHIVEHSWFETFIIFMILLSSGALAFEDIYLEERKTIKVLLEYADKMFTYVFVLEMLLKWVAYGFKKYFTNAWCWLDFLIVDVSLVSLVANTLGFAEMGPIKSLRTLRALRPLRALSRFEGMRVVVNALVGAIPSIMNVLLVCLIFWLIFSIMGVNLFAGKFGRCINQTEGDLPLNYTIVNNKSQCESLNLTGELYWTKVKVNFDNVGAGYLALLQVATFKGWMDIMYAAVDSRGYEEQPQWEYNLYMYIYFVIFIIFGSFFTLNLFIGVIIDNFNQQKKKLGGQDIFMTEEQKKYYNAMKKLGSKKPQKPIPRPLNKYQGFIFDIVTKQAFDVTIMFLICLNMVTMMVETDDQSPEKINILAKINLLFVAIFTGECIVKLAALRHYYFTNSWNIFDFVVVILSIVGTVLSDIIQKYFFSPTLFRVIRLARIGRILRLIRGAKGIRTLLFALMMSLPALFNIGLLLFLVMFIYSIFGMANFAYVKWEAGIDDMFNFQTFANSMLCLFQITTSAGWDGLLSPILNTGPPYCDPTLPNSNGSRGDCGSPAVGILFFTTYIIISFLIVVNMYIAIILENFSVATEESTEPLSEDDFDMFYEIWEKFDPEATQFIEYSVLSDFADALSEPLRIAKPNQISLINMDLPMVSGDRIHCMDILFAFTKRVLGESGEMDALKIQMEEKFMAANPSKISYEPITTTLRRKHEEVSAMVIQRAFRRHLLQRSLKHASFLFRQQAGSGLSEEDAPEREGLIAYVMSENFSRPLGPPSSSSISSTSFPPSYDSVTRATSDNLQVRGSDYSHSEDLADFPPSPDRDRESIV

CC[C@H](C)[C@@H]1NC(=O)[C@@H]2CSSC[C@@H]3NC(=O)[C@H](C(C)C)NC(=O)[C@H](CC(C)C)NC(=O)[C@H](CC(N)=O)NC(=O)[C@@H]4CCCN4C(=O)[C@H](CCCCN)NC(=O)[C@H](CSSC[C@H](NC(=O)[C@@H](N)CC(=O)O)C(=O)N[C@@H](CC(C)C)C(=O)NCC(=O)N[C@@H](Cc4ccccc4)C(=O)N[C@@H](CCSC)C(=O)N[C@@H](CCCNC(=N)N)C(=O)N[C@@H](CCCCN)C(=O)N2)NC(=O)[C@H](CSSC[C@@H](C(=O)N[C@@H](CCCCN)C(=O)N[C@@H](Cc2ccc(O)cc2)C(=O)N[C@H](C(=O)N[C@@H](Cc2ccccc2)C(N)=O)C(C)C)NC(=O)[C@H](Cc2c[nH]c4ccccc24)NC(=O)[C@H](CCCCN)NC(=O)[C@H](Cc2cnc[nH]2)NC(=O)[C@H]([C@@H](C)O)NC(=O)[C@H](CCCNC(=N)N)NC(=O)[C@H](CO)NC3=O)NC(=O)[C@H](CCCCN)NC(=O)[C@H](CC(=O)O)NC(=O)[C@H](CC(N)=O)NC(=O)[C@H](CC(=O)O)NC(=O)[C@@H]2CCCN2C1=O [[Lys18]GpTx-1(1-34)] (H-DCLGFMRKCIPDNDKCCKPNLVCSRTHKWCKYVF-NH2; disulfide 2-17, 9-23, 16-30)
IC50 (hNav1.5): 16.4 µM
IC50 (hNav1.7): 0.002 µM

CSCC[C@@H]1NC(=O)[C@H](C(C)C)NC(=O)CNC(=O)[C@H](CC(C)C)NC(=O)[C@@H](NC(=O)[C@@H](N)CC(=O)O)CSSC[C@@H]2NC(=O)[C@@H]3CSSC[C@@H](C(=O)N[C@@H](CCCCN)C(=O)N[C@@H](Cc4ccc(O)cc4)C(=O)N[C@H](C(=O)N[C@@H](Cc4ccccc4)C(N)=O)C(C)C)NC(=O)[C@H](Cc4c[nH]c5ccccc45)NC(=O)[C@H](CCCCN)NC(=O)[C@H](Cc4c[nH]cn4)NC(=O)[C@H]([C@@H](C)O)NC(=O)[C@H](CCCNC(=N)N)NC(=O)[C@H](CO)NC(=O)[C@H](CSSC[C@H](NC(=O)[C@H](CCCCN)NC(=O)[C@H](CCCNC(=N)N)NC1=O)C(=O)N[C@@H](CC(=O)O)C(=O)N1CCC[C@H]1C(=O)N[C@@H](CC(=O)O)C(=O)N[C@@H](CC(N)=O)C(=O)N[C@@H](CC(=O)O)C(=O)N[C@@H](CCCCN)C(=O)N3)NC(=O)[C@H](C(C)C)NC(=O)[C@H](CC(C)C)NC(=O)[C@H](CC(N)=O)NC(=O)[C@@H]1CCCN1C(=O)[C@H](CCCNC(=N)N)NC2=O [[Val5;Asp10]GpTx-1(1-34)] (H-DCLGVMRKCDPDNDKCCRPNLVCSRTHKWCKYVF-NH2; disulfide 2-17, 9-23, 16-30)
IC50 (hNav1.5): > 10 µM
IC50 (hNav1.7): 0.174 µM

CC[C@H](C)[C@@H]1NC(=O)[C@@H]2CSSC[C@@H]3NC(=O)[C@H](C(C)C)NC(=O)[C@H](CC(C)C)NC(=O)[C@H](CC(N)=O)NC(=O)[C@@H]4CCCN4C(=O)[C@H](CCCNC(=N)N)NC(=O)[C@H](CSSC[C@H](NC(=O)[C@@H](N)CC(=O)O)C(=O)N[C@@H](CC(C)C)C(=O)NCC(=O)N[C@@H](C)C(=O)N[C@@H](Cc4ccccc4)C(=O)N[C@@H](CCCNC(=N)N)C(=O)N[C@@H](CCCCN)C(=O)N2)NC(=O)[C@H](CSSC[C@@H](C(=O)N[C@@H](CCCCN)C(=O)N[C@@H](Cc2ccc(O)cc2)C(=O)N[C@H](C(=O)N[C@@H](Cc2ccccc2)C(N)=O)C(C)C)NC(=O)[C@H](Cc2c[nH]c4ccccc24)NC(=O)[C@H](CCCCN)NC(=O)[C@H](Cc2c[nH]cn2)NC(=O)[C@H]([C@@H](C)O)NC(=O)[C@H](CCCNC(=N)N)NC(=O)[C@H](CO)NC3=O)NC(=O)[C@H](CCCCN)NC(=O)[C@H](CC(=O)O)NC(=O)[C@H](CC(N)=O)NC(=O)[C@H](CCC(=O)O)NC(=O)[C@@H]2CCCN2C1=O [[Ala5;Phe6;Glu12]GpTx-1(1-34)] (H-DCLGAFRKCIPENDKCCRPNLVCSRTHKWCKYVF-NH2; disulfide 2-17, 9-23, 16-30)
IC50 (hNav1.5): > 10 µM
IC50 (hNav1.7): 0.028 µM

CC[C@@H]1NC(=O)[C@H](CC(=O)O)NC(=O)[C@@H]2CCCN2C(=O)[C@H]([C@@H](C)CC)NC(=O)[C@@H]2CSSC[C@@H]3NC(=O)[C@H](C(C)C)NC(=O)[C@H](CC(C)C)NC(=O)[C@H](CC(N)=O)NC(=O)[C@@H]4CCCN4C(=O)[C@H](CCCNC(=N)N)NC(=O)[C@H](CSSC[C@H](NC(=O)[C@@H](N)CC(=O)O)C(=O)N[C@@H](CC(C)C)C(=O)NCC(=O)N[C@@H](C)C(=O)N[C@@H](Cc4ccccc4)C(=O)N[C@@H](CCCNC(=N)N)C(=O)N[C@@H](CCCCN)C(=O)N2)NC(=O)[C@H](CSSC[C@@H](C(=O)N[C@@H](CCCCN)C(=O)N[C@@H](Cc2ccc(O)cc2)C(=O)N[C@H](C(=O)N[C@@H](Cc2ccccc2)C(N)=O)C(C)C)NC(=O)[C@H](Cc2c[nH]c4ccccc24)NC(=O)[C@H](CCCNC(=N)N)NC(=O)[C@H](Cc2c[nH]cn2)NC(=O)[C@H](CC(C)C)NC(=O)[C@H](CCCNC(=N)N)NC(=O)[C@H](CO)NC3=O)NC(=O)[C@H](CCCCN)NC(=O)[C@H](CC(=O)O)NC1=O (H-DCLGAFRKCIPD[Abu]DKCCRPNLVCSRLHRWCKYVF-NH2; disulfide 2-17, 9-23, 16-30)
IC50 (hNav1.5): > 10 µM
IC50 (hNav1.7): 0.0047 µM

CC[C@H](C)[C@@H]1NC(=O)[C@@H]2CSSC[C@@H]3NC(=O)[C@H](C(C)C)NC(=O)[C@H](CC(C)C)NC(=O)[C@H](CC(N)=O)NC(=O)[C@@H]4CCCN4C(=O)[C@H](CCCNC(=N)N)NC(=O)[C@H](CSSC[C@H](NC(=O)[C@H](CC(=O)O)NC(=O)[C@H](CO)NC(=O)CN)C(=O)N[C@@H](CC(C)C)C(=O)NCC(=O)N[C@@H](C)C(=O)N[C@@H](Cc4ccccc4)C(=O)N[C@@H](CCCNC(=N)N)C(=O)N[C@@H](CCCCN)C(=O)N2)NC(=O)[C@H](CSSC[C@@H](C(=O)N[C@@H](CCCCN)C(=O)N[C@@H](Cc2ccc(O)cc2)C(=O)N[C@H](C(=O)N[C@@H](Cc2ccccc2)C(=O)N[C@@H](Cc2ccccc2)C(=O)O)C(C)C)NC(=O)[C@H](Cc2c[nH]c4ccccc24)NC(=O)[C@H](CCCNC(=N)N)NC(=O)[C@H](Cc2c[nH]cn2)NC(=O)[C@H]([C@@H](C)O)NC(=O)[C@H](CCCNC(=N)N)NC(=O)[C@H](CO)NC3=O)NC(=O)[C@H](CCCCN)NC(=O)[C@H](CC(=O)O)NC(=O)[C@H](CC(N)=O)NC(=O)[C@H](CC(=O)O)NC(=O)[C@@H]2CCCN2C1=O (H-GSDCLGAFRKCIPDNDKCCRPNLVCSRTHRWCKYVFF-OH; disulfide 4-19, 11-25, 18-32)
IC50 (hNav1.5): > 10 µM
IC50 (hNav1.7): 0.047 µM

CC[C@H](C)[C@@H]1NC(=O)[C@@H]2CSSC[C@@H]3NC(=O)[C@H](C(C)C)NC(=O)[C@H](CC(C)C)NC(=O)[C@H](CC(N)=O)NC(=O)[C@@H]4CCCN4C(=O)[C@H](CCCNC(=N)N)NC(=O)[C@H](CSSC[C@H](NC(=O)[C@@H](N)CC(=O)O)C(=O)N[C@@H](CC(C)C)C(=O)NCC(=O)N[C@@H](C)C(=O)N[C@@H](CCSC)C(=O)N[C@@H](CCCNC(=N)N)C(=O)N[C@@H](CCCCN)C(=O)N2)NC(=O)[C@H](CSSC[C@@H](C(=O)N[C@@H](CCCCN)C(=O)N[C@@H](Cc2ccc(O)cc2)C(=O)N[C@H](C(=O)N[C@@H](Cc2ccccc2)C(N)=O)C(C)C)NC(=O)[C@H](Cc2c[nH]c4ccccc24)NC(=O)[C@H](CCCNC(=NC)NC)NC(=O)[C@H](Cc2c[nH]cn2)NC(=O)[C@H]([C@@H](C)O)NC(=O)[C@H](CCCNC(=N)N)NC(=O)[C@H](CO)NC3=O)NC(=O)[C@H](CCCCN)NC(=O)[C@H](CC(=O)O)NC(=O)[C@H](CC(N)=O)NC(=O)[C@H](CC(=O)O)NC(=O)[C@@H]2CCCN2C1=O [[Ala5;SDMA28]GpTx-1(1-34)] (H-DCLGAMRKCIPDNDKCCRPNLVCSRTH[Arg(Me2s)]WCKYVF-NH2; disulfide 2-17, 9-23, 16-30)
IC50 (hNav1.5): > 10 µM
IC50 (hNav1.7): 0.041 µM
